Data set [1] has as its system MDA-MB-468. Description: Antitumor activity against human MDA-MB-468 cells xenografted in CB-17 SCID mouse assessed as reduction in tumor size at 50 mg/kg, ip qd for 21 days. The class given is functional. The settings on record: MDA-MB-468, ip, 504 h, route intraperitoneal, read-out: TGI.
In data set [2] the test system is MCF7. Description: Antiproliferative activity against human MCF7 cells assessed as growth inhibition after 5 days by SRB assay. The format is functional. The note with it: MCF7, 120 h. Background: The SRB assay estimates cell density from bound dye.
Data set [3] has as its target Aurora kinase B (Homo sapiens, UniProt Q96GD4). Description: Inhibition of aurora B (unknown origin) by FRET-based homogeneous assay.
Data set [4] addresses Cytochrome P450 3A4 (Homo sapiens, UniProt P08684). The data set is described as follows: Inhibition of CYP3A4 (unknown origin) after 10 mins by fluorescence assay. The format is ADME.
Data set [5] has as its target Cytochrome P450 2C9 (Homo sapiens, UniProt P11712). Description: Inhibition of CYP2C9 (unknown origin) using MFC as substrate after 45 mins by fluorescence assay. The format is ADME.
The nature of data set [6]: Cmax in SCID mouse at 50 mg/kg, ip. The format is ADME, organism-based. More on the design: dose 50 mg/kg, route intraperitoneal. The note with it: in vivo.
In data set [7] the target is Cytochrome P450 2C19 (Homo sapiens, UniProt P33261). The data set is described as follows: Inhibition of CYP2C19 (unknown origin) using MFC as substrate after 30 mins by fluorescence assay. The class given is ADME.
Sequence of Cytochrome P450 2C19 (P33261 whole entry): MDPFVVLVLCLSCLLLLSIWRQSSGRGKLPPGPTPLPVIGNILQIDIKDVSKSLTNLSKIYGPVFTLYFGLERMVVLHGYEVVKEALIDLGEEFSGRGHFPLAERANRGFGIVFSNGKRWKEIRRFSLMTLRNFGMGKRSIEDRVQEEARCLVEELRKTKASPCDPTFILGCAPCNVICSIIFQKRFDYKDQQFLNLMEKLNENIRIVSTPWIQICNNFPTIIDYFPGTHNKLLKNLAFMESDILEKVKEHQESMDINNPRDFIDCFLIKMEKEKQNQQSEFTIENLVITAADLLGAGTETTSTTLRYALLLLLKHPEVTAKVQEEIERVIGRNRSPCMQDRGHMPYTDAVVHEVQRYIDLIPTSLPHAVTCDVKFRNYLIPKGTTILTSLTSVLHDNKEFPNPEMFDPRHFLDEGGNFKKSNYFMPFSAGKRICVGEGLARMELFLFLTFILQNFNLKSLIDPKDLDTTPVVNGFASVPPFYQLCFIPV
The target of data set [8] is Serine/threonine-protein kinase PLK1 (Homo sapiens, UniProt P53350). Description: Inhibition of PLK1 (unknown origin) by FRET-based homogeneous assay.
Sequence of Serine/threonine-protein kinase PLK1 (P53350 whole entry): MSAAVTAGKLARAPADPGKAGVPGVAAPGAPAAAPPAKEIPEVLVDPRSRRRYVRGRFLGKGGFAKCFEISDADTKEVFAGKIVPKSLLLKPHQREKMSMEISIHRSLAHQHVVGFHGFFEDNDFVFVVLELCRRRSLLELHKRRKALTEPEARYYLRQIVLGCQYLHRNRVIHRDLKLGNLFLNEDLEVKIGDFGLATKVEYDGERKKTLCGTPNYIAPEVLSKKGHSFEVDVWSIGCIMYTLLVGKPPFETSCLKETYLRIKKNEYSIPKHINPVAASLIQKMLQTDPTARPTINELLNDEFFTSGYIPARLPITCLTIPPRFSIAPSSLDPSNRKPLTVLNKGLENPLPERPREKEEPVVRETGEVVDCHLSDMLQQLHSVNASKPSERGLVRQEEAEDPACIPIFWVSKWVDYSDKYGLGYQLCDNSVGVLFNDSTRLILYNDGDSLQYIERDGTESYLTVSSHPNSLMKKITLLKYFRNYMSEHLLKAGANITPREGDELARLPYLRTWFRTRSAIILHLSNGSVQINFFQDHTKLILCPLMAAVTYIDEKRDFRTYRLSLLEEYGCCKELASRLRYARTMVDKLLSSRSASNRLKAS
Data set [9] concerns MDA-MB-468. Description: Antiproliferative activity against human MDA-MB-468 cells assessed as growth inhibition after 5 days by SRB assay. The format is functional. The note with it: MDA-MB-468, 120 h.
Data set [10] in a line: AUC in SCID mouse at 50 mg/kg, ip. The class given is ADME, organism-based. More on the design: dose 50 mg/kg, route intraperitoneal. The note with it: plasma.
In data set [11] the target is Vascular endothelial growth factor receptor 2 (Homo sapiens, UniProt P35968). Description: Inhibition of KDR (unknown origin) by FRET-based homogeneous assay.
Sequence of Vascular endothelial growth factor receptor 2 (P35968 whole entry): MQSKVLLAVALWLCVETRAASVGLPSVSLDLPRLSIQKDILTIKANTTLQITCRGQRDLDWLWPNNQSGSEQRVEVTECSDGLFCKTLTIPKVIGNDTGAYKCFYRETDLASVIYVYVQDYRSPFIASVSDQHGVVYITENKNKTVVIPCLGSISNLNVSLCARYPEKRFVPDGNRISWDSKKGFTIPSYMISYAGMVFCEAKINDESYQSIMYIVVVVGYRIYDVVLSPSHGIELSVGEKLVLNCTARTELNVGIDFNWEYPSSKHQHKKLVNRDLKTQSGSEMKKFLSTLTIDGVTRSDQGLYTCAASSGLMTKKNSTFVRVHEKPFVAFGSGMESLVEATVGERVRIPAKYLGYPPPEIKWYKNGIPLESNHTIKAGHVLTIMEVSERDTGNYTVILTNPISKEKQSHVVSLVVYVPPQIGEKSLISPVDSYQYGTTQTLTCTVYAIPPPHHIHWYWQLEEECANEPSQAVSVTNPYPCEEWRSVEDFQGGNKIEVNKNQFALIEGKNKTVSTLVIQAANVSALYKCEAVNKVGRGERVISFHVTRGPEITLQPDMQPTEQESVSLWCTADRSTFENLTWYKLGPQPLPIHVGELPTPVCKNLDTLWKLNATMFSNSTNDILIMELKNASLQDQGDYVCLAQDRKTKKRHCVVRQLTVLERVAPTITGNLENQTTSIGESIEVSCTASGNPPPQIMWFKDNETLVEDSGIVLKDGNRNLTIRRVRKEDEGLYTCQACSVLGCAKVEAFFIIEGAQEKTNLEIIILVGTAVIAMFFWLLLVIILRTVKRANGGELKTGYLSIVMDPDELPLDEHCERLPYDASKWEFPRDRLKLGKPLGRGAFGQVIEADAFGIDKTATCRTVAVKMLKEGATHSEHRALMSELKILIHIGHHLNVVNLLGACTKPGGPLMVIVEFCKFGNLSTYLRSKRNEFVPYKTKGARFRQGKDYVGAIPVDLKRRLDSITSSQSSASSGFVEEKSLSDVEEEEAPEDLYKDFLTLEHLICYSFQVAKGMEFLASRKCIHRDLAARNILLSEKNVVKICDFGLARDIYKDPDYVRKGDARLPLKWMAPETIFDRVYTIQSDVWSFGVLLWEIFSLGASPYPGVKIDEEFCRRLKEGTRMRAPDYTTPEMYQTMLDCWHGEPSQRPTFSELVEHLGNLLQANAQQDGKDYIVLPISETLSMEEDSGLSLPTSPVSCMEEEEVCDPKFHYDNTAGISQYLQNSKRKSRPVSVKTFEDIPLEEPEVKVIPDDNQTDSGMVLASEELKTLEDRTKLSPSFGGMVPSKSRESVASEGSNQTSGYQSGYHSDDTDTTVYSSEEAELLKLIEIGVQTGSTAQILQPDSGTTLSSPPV
Data set [12] deals with T1, Cytochrome P450 1A2 (Homo sapiens, UniProt P05177).
T1 sequence (P05177 whole entry): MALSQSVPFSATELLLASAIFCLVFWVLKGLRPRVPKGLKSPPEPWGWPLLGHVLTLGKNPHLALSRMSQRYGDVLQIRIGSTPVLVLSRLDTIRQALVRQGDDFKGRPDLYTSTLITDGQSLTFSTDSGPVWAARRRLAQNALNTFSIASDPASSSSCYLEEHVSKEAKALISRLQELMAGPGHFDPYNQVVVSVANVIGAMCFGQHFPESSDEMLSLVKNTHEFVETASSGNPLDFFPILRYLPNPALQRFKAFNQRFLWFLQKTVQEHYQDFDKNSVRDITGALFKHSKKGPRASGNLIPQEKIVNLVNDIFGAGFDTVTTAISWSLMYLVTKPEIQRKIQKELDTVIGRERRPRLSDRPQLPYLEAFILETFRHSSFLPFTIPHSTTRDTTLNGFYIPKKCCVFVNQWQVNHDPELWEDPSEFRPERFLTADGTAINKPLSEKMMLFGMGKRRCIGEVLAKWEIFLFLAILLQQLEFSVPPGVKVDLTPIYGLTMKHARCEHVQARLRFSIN
Description: Inhibition of CYP1A2 (unknown origin) using CEC as substrate after 15 mins by fluorescence assay. The class given is ADME.

The target in data set [13] is Serine/threonine-protein kinase PLK2 (Homo sapiens, UniProt Q9NYY3). Description: Inhibition of PLK2 (unknown origin) by FRET-based homogeneous assay.
Sequence of Serine/threonine-protein kinase PLK2 (Q9NYY3 whole entry): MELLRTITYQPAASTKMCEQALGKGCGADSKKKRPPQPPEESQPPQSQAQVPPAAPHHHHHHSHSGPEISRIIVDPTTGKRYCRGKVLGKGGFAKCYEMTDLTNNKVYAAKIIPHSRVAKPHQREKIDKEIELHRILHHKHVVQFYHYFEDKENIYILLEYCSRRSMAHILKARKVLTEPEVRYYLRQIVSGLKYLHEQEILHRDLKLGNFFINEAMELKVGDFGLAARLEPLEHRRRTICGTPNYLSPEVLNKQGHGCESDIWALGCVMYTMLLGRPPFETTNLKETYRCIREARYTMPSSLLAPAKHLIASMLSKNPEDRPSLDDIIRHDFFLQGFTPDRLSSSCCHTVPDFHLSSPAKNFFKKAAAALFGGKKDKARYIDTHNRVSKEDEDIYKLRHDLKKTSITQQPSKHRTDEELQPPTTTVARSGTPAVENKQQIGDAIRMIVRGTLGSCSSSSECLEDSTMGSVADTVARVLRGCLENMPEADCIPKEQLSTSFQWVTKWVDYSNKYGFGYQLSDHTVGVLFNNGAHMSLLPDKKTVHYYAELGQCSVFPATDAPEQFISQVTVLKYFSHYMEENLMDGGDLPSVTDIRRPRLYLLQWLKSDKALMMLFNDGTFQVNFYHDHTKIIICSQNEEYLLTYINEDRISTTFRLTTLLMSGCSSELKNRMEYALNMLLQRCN
Data set [14] concerns MDA-MB-231. Description: Antiproliferative activity against human MDA-MB-231 cells assessed as growth inhibition after 5 days by SRB assay. The format is functional. The note with it: MDA-MB-231, 120 h.

Structures are written as SMILES.

Sequence of Cytochrome P450 2C9 (P11712 whole entry): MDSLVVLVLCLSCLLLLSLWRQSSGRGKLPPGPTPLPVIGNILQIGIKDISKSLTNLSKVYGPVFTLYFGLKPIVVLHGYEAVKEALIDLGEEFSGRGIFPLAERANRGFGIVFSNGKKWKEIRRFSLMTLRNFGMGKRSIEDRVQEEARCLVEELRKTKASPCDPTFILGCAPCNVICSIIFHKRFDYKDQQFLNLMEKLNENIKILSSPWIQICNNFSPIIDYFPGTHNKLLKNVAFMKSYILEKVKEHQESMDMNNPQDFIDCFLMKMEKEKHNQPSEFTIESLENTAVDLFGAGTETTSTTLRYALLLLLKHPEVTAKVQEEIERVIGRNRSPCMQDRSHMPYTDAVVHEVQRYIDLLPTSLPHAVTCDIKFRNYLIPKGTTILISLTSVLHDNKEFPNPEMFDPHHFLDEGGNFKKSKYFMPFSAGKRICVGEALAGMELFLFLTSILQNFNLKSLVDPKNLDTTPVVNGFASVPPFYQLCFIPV
Sequence of Cytochrome P450 3A4 (P08684 whole entry): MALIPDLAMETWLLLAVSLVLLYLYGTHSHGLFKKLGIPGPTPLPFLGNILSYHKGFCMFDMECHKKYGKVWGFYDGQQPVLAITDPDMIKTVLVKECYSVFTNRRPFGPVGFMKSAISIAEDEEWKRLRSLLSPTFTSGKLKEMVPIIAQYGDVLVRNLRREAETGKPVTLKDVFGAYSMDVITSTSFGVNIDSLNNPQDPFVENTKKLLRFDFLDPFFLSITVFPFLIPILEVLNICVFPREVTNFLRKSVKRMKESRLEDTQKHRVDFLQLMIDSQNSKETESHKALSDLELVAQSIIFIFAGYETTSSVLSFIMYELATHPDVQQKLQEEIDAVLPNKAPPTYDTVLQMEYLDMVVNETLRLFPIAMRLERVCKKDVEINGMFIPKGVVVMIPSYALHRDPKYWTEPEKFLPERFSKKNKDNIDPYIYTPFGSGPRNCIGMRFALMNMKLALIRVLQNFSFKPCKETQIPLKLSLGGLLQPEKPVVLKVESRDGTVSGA
Sequence of Aurora kinase B (Q96GD4 whole entry): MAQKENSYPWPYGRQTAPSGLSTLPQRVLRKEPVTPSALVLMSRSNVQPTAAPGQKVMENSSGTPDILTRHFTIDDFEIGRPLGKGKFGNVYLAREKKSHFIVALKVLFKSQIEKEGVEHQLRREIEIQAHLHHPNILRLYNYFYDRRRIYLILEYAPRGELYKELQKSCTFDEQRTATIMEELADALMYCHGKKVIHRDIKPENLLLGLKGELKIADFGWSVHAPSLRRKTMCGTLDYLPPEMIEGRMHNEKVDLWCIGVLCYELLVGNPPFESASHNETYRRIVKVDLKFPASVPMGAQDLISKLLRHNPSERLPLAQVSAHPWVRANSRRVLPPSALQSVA

Broadly, the GI50 is the concentration that inhibits growth by half. In general, IC50 refers to the midpoint of a concentration-inhibition curve. The Cmax is the peak of the concentration-time curve. For orientation: AUC means concentration integrated over time. The low end stands for less exposure, the high end for more exposure. As for `COc1ccc2c(c1)/C(=C\c1ccc3c(/C=C/c4ccc(N5CCN(C)CC5)nc4)n[nH]c3c1)C(=O)N2`, the inhibition in vivo at 50 mg/kg in [1] turned out to be 120%. The GI50 in data set [2] was 10 nM; in data set [9], < 10 nM; in data set [14] it was < 10 nM. Further, the IC50 in data set [3] is 210 nM; in data set [4] it was 10000 nM; in data set [5], 800 nM; in data set [7] it was 1600 nM; in [8] it was > 10000 nM; in [11] it was 480 nM. Further, the IC50 in data set [12] and in data set [13] was > 10000 nM throughout. The molecule also gave a Cmax in [6] of 92 ng/mL. This molecule showed an AUC in data set [10] of 190 ng·h/mL.

For the origin of these results see ChEMBL document CHEMBL2406977, “The discovery of PLK4 inhibitors: (E)-3-((1H-Indazol-6-yl)methylene)indolin-2-ones as novel antiproliferative agents” (J Med Chem, 2013).
